{"source": "patent US9387221B2", "about": "“SDF-1 binding nucleic acids and the use thereof in cancer treatment” (NOXXON Pharma AG, priority 2010, dated 2016)", "key": {"Jurkat cells": {"test_system": "Jurkat cells", "test": "Proliferation of Jurkat cells in coculture with stromal MS-5 cells", "format": "cell-based, human", "conditions": "40 hours", "description": "Aim of the experiment was to show whether SDF-1 binding Spiegelmer NOX-A12 has an impact on proliferation of leukemia cells in coculture with bone marrow (abbr. BM) stromal cells. Murine stromal MS-5 cells secreting SDF-1 were incubated with SDF-1 binding Spiegelmer NOX-A12 or the non-functional Spiegelmer revNOX-A12. The leukemic T-cell line Jurkat was added to the confluent stromal cell layer and incubated for 40 hours at 37° C. and 5% CO2. Cell numbers were quantified by Flow Cytometry using the Guava EasyCyte and ViaCount Reagent.\nThe murine stromal cell line MS-5 (ACC 441) were purchased from the DSMZ and were cultured in MEM alpha GlutaMAX (Invitrogen) with 10% FBS and penicillin-streptomycin. For proliferation coculture experiments stromal MS-5 cells were seeded the day before onto 24-well plates (the inner eight wells) at a concentration of 8×10^4/mL/well in MEM alpha GlutaMAX medium (+10% FBS) and incubated at 37° C. in 5% CO2. The confluent stromal cell layer was washed and 0.5 mL RPMI medium 1640 (+1% FBS) was added to the wells. […] 2×10^5 Jurkat cells (logarithmic growth phase; washed once) in RPMI medium 1640 (+1% FBS) were added to the confluent stromal cell layer and incubated for […] at 37° C. with 5% CO2. […] Cell viability and cell number were determined by Flow Cytometry using the Guava EasyCyte 6HT/2L."}, "SDF-1 [1]": {"target": "T1, SDF-1 (Homo sapiens, UniProt P48061)", "test": "Inhibition of SDF-1-induced chemotaxis, U937 cells", "format": "cell-based", "conditions": "3 nM human SDF-1", "description": "(§1) The human T cell leukemia cell line Jurkat, the human leukemic monocyte lymphoma cell line U937, the human pre-B cell leukemia cell line BV-173 and human pre-B ALL cell line Nalm-6 express CXCR4. […] All cells used were obtained from the DSMZ (Braunschweig). All cell lines were cultivated at 37° C. and 5% CO2 in RPMI 1640 medium with Glutamax (Invitrogen, Karlsruhe, Germany) which contains 10% fetal bovine serum, 100 units/ml penicillin and 100 μg/ml streptomycin (Invitrogen, Karlsruhe, Germany). One day before the experiment, cells were seeded in a new T175 flask with a density of 0.3×10^6/ml (Jurkat, U937, BV-173) or 0.75×10^6/ml (Nalm-6), respectively.\n(§2) For the experiment, cells were centrifuged (5 min at 300 g), resuspended, counted and washed once with 15 ml HBH (Hanks balanced salt solution containing 1 mg/ml bovine serum albumin and 20 mM HEPES; Invitrogen, Karlsruhe, Germany). Then the cells were resuspended at 1.33×10^6/ml (Jurkat, U937, BV-173) or 2.67×10^6/ml (Nalm-6), respectively. […]\n(§3) For evaluation, fluorescence values were corrected for background fluorescence (no cells in well). Then the difference between experimental conditions with and without SDF-1 was calculated. The value for the sample without Spiegelmer (SDF-1 only) was set 100% and the values for the samples with Spiegelmer were calculated as percent of this. […]"}, "SDF-1 [2]": {"target": "T1, SDF-1", "test": "SDF-1 dependent chemotaxis of primary chronic lymphocytic leukemia cells", "format": "cell-based"}, "SDF-1 [3]": {"target": "T1, SDF-1", "test": "Inhibition of SDF-1-induced chemotaxis, Nalm-6 cells", "format": "cell-based", "conditions": "0.3 nM human SDF-1", "description": "as §1, §2, §3"}, "Luc+/GFP+ MM.1S cells": {"test_system": "Luc+/GFP+ MM.1S cells", "test": "Multiple myeloma animal model in SCID mice", "format": "in vivo", "description": "The SDF-1/CXCR4 axis plays a major role in homing and trafficking of multiple myeloma (abbr. MM) cells to the bone marrow (abbr. BM). Therefore, de-adhesion of MM cells from the surrounding BM milieu through SDF-1 inhibition enhances MM sensitivity to therapeutic agents. Azab et al. published a protocol to test the CXCR4 inhibitor AMD3100 potency to disrupt the interaction of MM cells with the BM environment in vivo that affects localization MM cells [, which in turn enhances the sensitivity of MM cells to chemotherapy. […] Based on this protocol (Azab et al. 2009) the SDF-1 binding Spiegelmer NOX-A12 is tested for its potency to disupt the interaction of MM cells with the BM environment in vivo thereby enhancing the sensitivity of the MM cells to therapy.\nFor the MM animal model severe combined immunodeficient (SCID) mice are used whereby Luc+/GFP+ MM.1S cells (2×10^6/mouse) are injected into the tail vein of SCID mice. After 3 to 4 weeks, sufficient tumor progression is detected by bioluminescence imaging (for protocol see Azab et al. 2009). […]"}}, "note": "{PEG40k} = 40 kDa polyethylene glycol"}
{"substance": "5′-40 kDa-PEG-GCGUGGUGUGAUCUAGAUGUAUUGGCUGAUCCUAGUCAGGUACGC (5' {PEG40k}, sugars by position and backbone not given here) [NOX-A12]", "values": [{"measurement": "effect on Jurkat cell number", "setting": "Jurkat cells; 1 nM", "result": "no effect"}, {"measurement": "reduction of Jurkat cell number", "setting": "Jurkat cells; 10 or 100 nM", "result": "up to 20%"}, {"measurement": "inhibition of SDF-1 induced chemotaxis", "setting": "SDF-1 [1]", "result": "Inhibition"}, {"measurement": "block of SDF-1 dependent chemotaxis", "setting": "SDF-1 [2]", "result": "effectively blocked"}, {"measurement": "inhibition of SDF-1 induced chemotaxis", "setting": "SDF-1 [3]", "result": "Inhibition"}, {"measurement": "tumor growth (in vivo bioluminescence)", "setting": "Luc+/GFP+ MM.1S cells; NOX-A12 20 mg/kg s.c. every other day together with bortezomib 0.5 mg/kg i.p. twice a week", "result": "reduction of tumor growth"}, {"measurement": "MM cell mobilization (ex vivo flow cytometry)", "setting": "Luc+/GFP+ MM.1S cells; SCID mice, 20 mg/kg NOX-A12 subcutaneous every other day", "result": "MM cell mobilization from bone marrow to the blood"}]}
